Data: patent US11572341B2, “Biguanide compound and use thereof” (ImmunoMet Therapeutics Inc., priority 2014, dated 2023)
Read-outs that look alike come from different tables or passages of the source.

How the values were obtained:
HCT116 cells = test: Inhibitory effect against cancer cell proliferation (MTT); assay type: cell-based, human; conditions: Homo sapiens, read-out: IC50 (uM) @ HCT116
Method: The formazane crystals thus formed were dissolved using dimethyl sulfoxide (DMSO) and absorbance of the solution was measured at 560 nm. After culturing for 48 hours, […] synthesized in Examples was indicated as cell viability (%) according to each treated concentration.

AMPKa [pT172] = test: AMPKa activation [pT172] in MCF7 cell; assay type: cell-based

| Compound | IC50 (HCT116 cells; HCT-116, 48 h) | AMPKa activation [pT172] (Unit/ml) @ MCF7 cell (AMPKa [pT172]; 50 uM) | IC50 (HCT116 cells; HCT-116, HCT116, MTT, 48 hours) | AMPKa activation [pT172] (Unit/ml) @ MCF7 cell (AMPKa [pT172]; 5 uM) | AMPKa activation [pT172] (Unit/ml) @ MCF7 cell (AMPKa [pT172]; 10 uM) |
| --- | --- | --- | --- | --- | --- |
| Cl.N=C(N)NC(=N)Nc1ccc(Cl)cc1 [Example 110, N1-(4-chloro)phenyl Biguanide Hydrochloride] | 97.2 µM | 3.9 Unit/ml | – | – | – |
| C=CCNC(=N)NC(=N)N.Cl [Example 111, N1-(2-prophene) Biguanide Hydrochloride] | – | 30.2 Unit/ml | 35.7 µM | 11.4 Unit/ml | 12.1 Unit/ml |
| Cl.N=C(N)NC(=N)NCc1ccc2c(c1)OCO2 [Example 112, N1-(benzo[d][1,3]dioxol-5-yl)methyl Biguanide Hydrochloride] | – | 10.6 Unit/ml | > 100 µM | – | – |
| CCCNC(=N)NC(=N)N.Cl [Example 114, N1-propyl Biguanide Hydrochloride] | – | 6.1 Unit/ml | 118 µM | – | – |
| CC(C)N(C(=N)NC(=N)N)C(C)C.Cl [Example 115, N1,N1-diisopropyl Biguanide Hydrochloride] | – | 4.8 Unit/ml | > 100 µM | – | – |
| CC(=O)c1ccc(NC(=N)NC(=N)N)cc1.Cl [Example 117, N1-(4-acetyl)phenyl Biguanide Hydrochloride] | – | 6.2 Unit/ml | > 100 µM | – | – |
| Cl.N=C(N)NC(=N)Nc1ccccc1C(F)(F)F [Example 119, N1-(2-trifluoromethyl)phenyl Biguanide Hydrochloride] | – | 8.5 Unit/ml | 3.5 µM | 6.9 Unit/ml | 8.8 Unit/ml |
| COc1ccc(NC(=N)NC(=N)N)cc1.Cl [Example 120, N1-(4-methoxy)phenyl Biguanide Hydrochloride] | – | 8.1 Unit/ml | > 100 µM | – | – |
| CCCc1ccccc1NC(=N)NC(=N)N.Cl [Example 121, N1-(2-propyl)phenyl Biguanide Hydrochloride] | – | 9.0 Unit/ml | > 100 µM | – | – |
| Cl.N=C(N)NC(=N)N1CCCCC1 [Example 123, N1-piperidine Biguanide Hydrochloride] | – | 12.6 Unit/ml | > 100 µM | 6.6 Unit/ml | 7.5 Unit/ml |
| Cl.N=C(N)NC(=N)NCc1ccccc1 [Example 124, N1-benzyl Biguanide Hydrochloride] | – | 8.4 Unit/ml | 56.7 µM | – | – |
| CC(=O)Nc1ccc(NC(=N)NC(=N)N)cc1.Cl [Example 125, N1-4-(N-acetylamino)phenyl Biguanide Hydrochloride] | – | 5.0 Unit/ml | > 100 µM | – | – |
| Cl.N=C(N)NC(=N)N1CCCC1 [Example 126, N1-pyrrolidine Biguanide Hydrochloride] | – | 10.7 Unit/ml | > 100 µM | 6.1 Unit/ml | 6.4 Unit/ml |
| Cl.N=C(N)NC(=N)Nc1ccc(C(F)(F)F)cc1 [Example 128, N1-(4-trifluoromethyl)phenyl Biguanide Hydrochloride] | – | 8.8 Unit/ml | > 100 µM | 7.6 Unit/ml | 7.1 Unit/ml |
| Cl.N=C(N)NC(=N)NCc1ccc(Cl)cc1 [Example 129, N1-(4-chloro)benzyl Biguanide Hydrochloride] | – | 11.4 Unit/ml | > 100 µM | 9.2 Unit/ml | 7.0 Unit/ml |
